From US10407388B2, “Thiourea derivatives as activators of RORα and pharmaceutical composition containing same” (SEOUL NATIONAL UNIVERSITY R & DB FOUNDATION, priority 2011, dated 2019) come the findings set out here.

The subject of one test is HMGCS2. Description: Fatty acid oxidation gene HMGCS2 in HepG2 cells, real-time RT-PCR. The following applies: 100 μM, 24 hours; FIG. 8. Format: cell-based, human. The protocol: (§1) HepG2 cells (1×10^6 cells/well) were seeded on a 60-dish and cultured overnight in a DMEM containing 10% FBS. The HepG2 cells were maintained at 37° C. in a humidification thermostat containing 5% CO2 and 95% air. After culturing, the HepG2 cells were treated with JC1-38, JC1-40, and JC1-42 at a concentration of 100 μM for 24 hours. After treatment, effects thereof on transcriptional activity were analyzed by real-time reverse transcriptase-polymerase chain reaction (real-time RT-PCR) analysis. The PCR was performed using the following primers respectively specific to MCAD, ACO1, ACO2, HMGCS2, CPT-1, and ACS, which are involved in fatty acid oxidation: […]

In test [1] the target is T1, RORα (Homo sapiens, UniProt P35398).
T1 construct: expressed in transfected cells; host or cells: CV-1 cells (ATCC CCL-70)
T1 sequence (P35398 1-523): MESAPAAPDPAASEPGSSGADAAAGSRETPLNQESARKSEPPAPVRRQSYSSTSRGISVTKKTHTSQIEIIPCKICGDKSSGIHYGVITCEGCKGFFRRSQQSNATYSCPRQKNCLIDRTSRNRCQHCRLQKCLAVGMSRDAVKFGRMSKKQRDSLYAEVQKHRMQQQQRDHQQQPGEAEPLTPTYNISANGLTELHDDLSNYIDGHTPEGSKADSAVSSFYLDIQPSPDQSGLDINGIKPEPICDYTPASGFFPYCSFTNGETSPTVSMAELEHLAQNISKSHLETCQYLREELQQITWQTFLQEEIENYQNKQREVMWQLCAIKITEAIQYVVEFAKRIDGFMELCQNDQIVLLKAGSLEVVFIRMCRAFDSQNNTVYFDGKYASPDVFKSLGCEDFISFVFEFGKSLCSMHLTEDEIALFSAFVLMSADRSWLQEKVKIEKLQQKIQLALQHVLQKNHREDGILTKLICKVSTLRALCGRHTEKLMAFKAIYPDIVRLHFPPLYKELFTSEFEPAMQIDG
Description: Transcriptional activity of RORα, RORE-tk-Luc reporter in CV-1 cells (Experimental Example 1). Format: cell-based. The following applies: for Fold Activation: JC1 compounds 100 μM, 24 hours, luciferase activity standardized by β-gal, versus control treated only with solvent. The protocol: CV-1 cells (CCL-70) were purchased from American Type Culture Collection (ATCC). The CV-1 cells (4×10^4 cells/well) were seeded on a 24-well culture plate and cultured overnight in a Dulbecco's Modified Eagle's Medium (DMEM) containing 10% fetal bovine serum (FBS). The CV-1 cells were maintained at 37° C. in a humidification thermostat containing 5% CO2 and 95% air. After culturing, the cells were transformed with RORE-tk-Luc reporter plasmid (100 ng) and ROR expression vector (5 ng) using calcium phosphate. […]

Test [2] addresses T1, RORα. Description: Transcriptional activity of RORα according to concentration, RORE-Luc reporter and Flag-RORα vector in CV-1 cells (Experimental Example 2). Format: cell-based. Particulars: for transcriptional activity of RORα / activity of RORα at low concentrations: 1 μM; for transcriptional activity of RORα: 10 μM, 20 μM, 50 μM, and 100 μM, 24 hours, FIG. 4; for activity of RORα at low concentrations: 10 μM, and 20 μM; for effect of increasing the activity of RORα compared with melatonin: 50 μM to 100 μM, melatonin 100 μM. The method, then: CV-1 cells (4×10^4 cells/well) were seeded on a 24-well culture plate and cultured overnight in a DMEM containing 10% FBS. The CV-1 cells were maintained at 37° C. in a humidification thermostat containing 5% CO2 and 95% air. After culturing, the CV-1 cells were transformed with RORE-Luc reporter (0.05 μg) and Flag-RORα vector (0.005 μg) using calcium phosphate. […] Subsequently, cell lysates were collected, and luciferase activity was analyzed and determined using an analytical luminescence luminometer. The luciferase activity was standardized by β-gal activity to determine transcriptional efficiency, and data was attained as the mean and SD for two or three independent experimental results, and the results thereof are illustrated in FIG. 4.

The subject of the next test is ApoB100. Kind of test: VLDL secretion gene ApoB100 in HepG2 cells, RT-PCR. The following applies: 100 μM, 24 hours; FIG. 9b. Format: cell-based, human. The method, then:
as §1, with “60-dish,” for “60-dish”, “RT-PCR” for “real-time reverse transcriptase-polymerase chain reaction (real-time RT-PCR)”, “CD36 (see FIG. 9a) involved in fatty acid uptake” for “MCAD, ACO1, ACO2, HMGCS2, CPT-1,”, “MTTP and ApoB100 (see FIG. 9b),” for “ACS,”, “the secretion of very low density lipoproteins:” for “fatty acid oxidation:”

In the next test the test system is LXRα. Kind of test: Expression of LXRα protein in HepG2 cells, western blotting. Format: cell-based, human. Particulars: for expression of LXRα protein: 100 μM, 24 hours, FIG. 6a. The method, then: HepG2 cells (1×10^6 cells/well) were seeded on a 60-dish and cultured overnight in a DMEM containing 10% FBS. The HepG2 cells were maintained at 37° C. in a humidification thermostat containing 5% CO2 and 95% air. After culturing, the HepG2 cells were treated with each of the JC1-38, JC1-40, and JC1-42 compounds at a concentration of 100 μM, and, as a positive control, the HepG2 cells were treated with 2 mM metformin, which is an AMPK activator, for 24 hours. After treatment, the expression of proteins was analyzed by western blotting analysis. That is, after treatment, the HepG2 cells were destroyed on ice in a lysis buffer containing 50 mM NaCl, 50 mM Tris pH 7.4, 5 mM EDTA, 1% NP-40, and a protease inhibitor for 30 minutes, and then centrifuged to obtain a total cell lysate. 20 μg to 30 μg of proteins collected from the total cell lysate was subjected to 7% to 9% sodium dodecyl sulfate-polyacrylamide gel electrophoresis (SDS-PAGE), and was transferred to a polyvinylidene difluoride membrane (Millipore, Bedford, Mass., USA). The resulting product was subjected to blocking with 5% or 10% (w/v) nonfat dry milk in PBS containing 0.1% Tween-20, and was reacted with antibodies specific to RORα (Affinity BioReagents), LXRα, SREBP-1, FAS (Santa Cruz Biotechnology), phospho-ACC (Cell signaling), and α-tubulin (Calbiochem). Immunoreactive proteins were detected with Amersham ECL western blotting detection reagents using a horseradish peroxidase (HRP)-conjugated secondary antibody (Zymed Lab). Protein concentrations were quantified by bicinchoninic acid (BCA) (Pierce) analysis, and the expression of α-tubulin was monitored as a control. The results thereof are illustrated in FIG. 6a.
In addition, HepG2 cells were cultured under the same conditions, and then the HepG2 cells were treated with particular concentrations (0 μM, 1 μM, 10 μM, 50 μM, and 100 μM) of JC1-40 (or JC1-42) and 1 μM T17 for 24 hours. After treatment, the expression of proteins was analyzed by western blotting analysis, and the expression of α-tubulin was monitored as a control. The results thereof are illustrated in FIGS. 6b and 6c.

Turning to `CNC(=S)NCc1ccccc1-c1ccncc1` [Compound 38, 1-methyl-3-(4-pyridinyl-2-benzyl)-thiourea], the “transcriptional activity of HMGCS2” value in the test on HMGCS2 is “increased”. The “Fold Activation” value at RORα [1] amounted to 1.9. Moreover, on RORα [2], the “transcriptional activity of RORα” value is reported as “increased in a manner dependent on the concentration”, the “activity of RORα at low concentrations” value is on record as “insignificantly increased” and the “effect of increasing the activity of RORα compared with melatonin” value is reported as “comparable to or surpassed the effect provided by melatonin”. In addition, the “transcriptional activity of ApoB100” value in the test with ApoB100 is “increased”. Moreover, the “expression of LXRα protein” value in the test on LXRα was “decreased”.
On to `CNC(=S)NCc1ccc(OCc2ccccc2)cc1` [Compound 40, 1-(4-benzyloxy-benzyl)-3-methyl-thiourea], for which the “transcriptional activity of HMGCS2” value with HMGCS2 is “increased”. Besides, the “Fold Activation” value at RORα [1] came out at 3.6. Besides, at RORα [2], the “transcriptional activity of RORα” value is “increased in a manner dependent on the concentration”, the “activity of RORα at low concentrations” value is listed as “insignificantly increased” and the “effect of increasing the activity of RORα compared with melatonin” value is given as “comparable to or surpassed the effect provided by melatonin”. The “transcriptional activity of ApoB100” value in the test on ApoB100 is given as “increased”. In the test on LXRα, the “expression of LXRα protein” value is given as “decreased”.
With `CNC(=S)NCc1ccc(Oc2ccccc2)cc1` [Compound 42, 1-(4-phenoxy-benzyl)-3-methyl-thiourea], the “transcriptional activity of HMGCS2” value with HMGCS2 was “increased”. The “activity (transcriptional activity of RORα)” value on RORα [1] (100 μM, relative to control treated only with a solvent) is on record as 460%. Moreover, at RORα [1], the “Fold Activation” value is 4.6. For the same compound, at RORα [2], the “transcriptional activity of RORα” value is “increased in a manner dependent on the concentration”, the “activity of RORα at low concentrations” value is given as “insignificantly increased” and the “effect of increasing the activity of RORα compared with melatonin” value is on record as “comparable to or surpassed the effect provided by melatonin”. Besides, the “transcriptional activity of ApoB100” value in the test with ApoB100 is “increased”. For the same compound, the “expression of LXRα, which had been increased by T17” value in the test on LXRα (0, 1, 10, 50, 100 μM with 1 μM T17, 24 hours, FIG. 6c) is given as “decreased in a manner dependent on the concentration”. Besides, the “expression of LXRα protein” value with LXRα is on record as “decreased”.
